Assay results: ChEMBL document CHEMBL3886324, “Pyrimidinylpiperidinyloxypyridone analogues as GPR119 modulators” (2015)

Assay: Tet-Inducible cAMP Assay: A human-mouse chimeric GPR119 expression construct encoding 3 copies of the FLAG epitope tag, the first 198 amino acids of human GPR119 and the C-terminal 137 amino acids of the mouse receptor was cloned into a tetracycline inducible vector pcDNA5/FRT/TO (Invitrogen #V6520-20), which includes a hygromycin-resistance marker. Tightly controlled receptor expression was achieved by stable integration of this construct into the genome of a specific host cell line, Flp-In-T-Rex-HEK293, expressing the tetracycline repressor (Invitrogen). Once a stable hygromycin-resistant cell line was generated, the cells were maintained at 37° C. in a humidified 5% CO2 atmosphere in culture medium consisting of Dulbecco's modified Eagle's medium (DMEM; Invitrogen #11960) supplemented with 2 mM L-glutamine, 10% fetal bovine serum, 200 μg/ml hygromycin B, and 15 μg/ml blasticidin.
Work on `Cc1nc(-n2cc(Cl)c(OC3CCN(c4ncc(Cl)cn4)CC3)cc2=O)ccc1N1CC[C@@H](O)C1=O` yielded an EC50 of 3 nM. Compound `Cc1nc(-n2cc(Cl)c(OC3CCN(c4ncc(Cl)cn4)CC3)cc2=O)ccc1N1CCC(O)C1=O` (stereo not drawn) has an EC50 of 2 nM. `Cc1nc(-n2ccc(OC3CCN(c4ncc(Cl)cn4)CC3)cc2=O)ccc1N1CCC(O)C1=O` (stereo not drawn) gave an EC50 of 10 nM.
